Counter-ions that a name gives are not always drawn. Like-named read-outs stand apart in the source and are kept apart here. Some results are limits rather than exact numbers.

Test [1] concerns Phosphorylated Ribosomal Protein S6 (RPS6) in THP-1 cells. Kind of test: THP-1 RPS6 ELISA Assay. The test is classed as cell-based, Human. The note with it: MCP-1 stimulated, phospho-RPS6 ELISA, read-out: THP p-RPS6 ELISA IC50. In outline:
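Phospho-RPS6 in lysates measured by ELISA at 450 nm, corrected at 540 nm, after MCP-1 challenge (10 nM, 15 min) of THP-1 cells that were starved overnight and exposed to test compound for 2 h at 37° C, 2×10^5 cells/well. Curve fit of percent inhibition gives IC50.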
In general terms: An ELISA detects its analyte on a solid surface through an enzyme-linked reagent.

The target in test [2] is PI3Kγ (p110γ) Recombinant Human Protein (Homo sapiens (Human), UniProt P48736). Kind of test: PI3K-γ Scintillation Proximity Assay. The test is classed as biochemical. The note with it: read-out: PI3K-gamma SPA IC50. In outline:
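Radiometric SPA: reaction at room temperature for 120 min using 2 μM ATP with [γ-33P]ATP tracer, 20 μM PIP2 substrate and 13 nM human PI3Kγ (MOPS pH 6.7, MgCl2, DTT, CHAPS; 2% DMSO). EDTA quench with WGA beads, scintillation count, and IC50 fit of percent-of-control activity.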

The target of test [3] is PI3Kδ (p110δ/p85α) Recombinant Human Protein (Homo sapiens (Human), UniProt O00329). Kind of test: PI3Kδ Scintillation Proximity Assay. It counts as biochemical. The note with it: read-out: PI3K-delta SPA IC50. In short, it runs like this: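 Assay conditions: 2 μM ATP (radiolabelled), 20 μM PIP2, 3.4 nM PI3Kδ, 20 mM MOPS pH 6.7 with 10 mM MgCl2, 5 mM DTT, 0.03% CHAPS, 2 h at room temperature. Signal from bead-captured 33P product; IC50 versus solvent control.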
Chain of PI3Kδ (p110δ/p85α) Recombinant Human Protein (O00329 whole entry): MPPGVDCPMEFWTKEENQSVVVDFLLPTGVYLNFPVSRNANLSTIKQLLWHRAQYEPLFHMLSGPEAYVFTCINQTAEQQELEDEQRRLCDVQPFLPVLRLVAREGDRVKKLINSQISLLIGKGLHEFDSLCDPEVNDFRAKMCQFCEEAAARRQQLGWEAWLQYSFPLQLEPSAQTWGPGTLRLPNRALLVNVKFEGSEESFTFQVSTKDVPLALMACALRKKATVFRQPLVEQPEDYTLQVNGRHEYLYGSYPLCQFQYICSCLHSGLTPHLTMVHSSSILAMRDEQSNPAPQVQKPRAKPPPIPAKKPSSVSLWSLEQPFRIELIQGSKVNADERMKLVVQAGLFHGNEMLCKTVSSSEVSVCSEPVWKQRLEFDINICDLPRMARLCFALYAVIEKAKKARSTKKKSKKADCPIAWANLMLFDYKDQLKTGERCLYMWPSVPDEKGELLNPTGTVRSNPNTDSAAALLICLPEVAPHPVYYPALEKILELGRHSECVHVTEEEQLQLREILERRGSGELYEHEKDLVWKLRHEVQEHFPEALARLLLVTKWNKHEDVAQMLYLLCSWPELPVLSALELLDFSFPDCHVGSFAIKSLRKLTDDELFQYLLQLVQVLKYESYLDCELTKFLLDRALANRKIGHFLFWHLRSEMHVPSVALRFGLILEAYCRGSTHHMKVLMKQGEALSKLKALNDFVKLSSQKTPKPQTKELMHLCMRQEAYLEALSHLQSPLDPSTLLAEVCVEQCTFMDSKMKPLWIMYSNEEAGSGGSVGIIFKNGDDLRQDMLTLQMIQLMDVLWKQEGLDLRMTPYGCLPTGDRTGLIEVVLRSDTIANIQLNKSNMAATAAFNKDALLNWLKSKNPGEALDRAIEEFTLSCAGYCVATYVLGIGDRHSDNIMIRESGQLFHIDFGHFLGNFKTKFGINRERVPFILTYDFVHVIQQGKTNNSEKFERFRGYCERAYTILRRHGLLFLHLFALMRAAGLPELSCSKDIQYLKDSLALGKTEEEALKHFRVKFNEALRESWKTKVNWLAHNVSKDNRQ
Chain of PI3Kδ (p110δ/p85α) Recombinant Human Protein (P27986 whole entry partner): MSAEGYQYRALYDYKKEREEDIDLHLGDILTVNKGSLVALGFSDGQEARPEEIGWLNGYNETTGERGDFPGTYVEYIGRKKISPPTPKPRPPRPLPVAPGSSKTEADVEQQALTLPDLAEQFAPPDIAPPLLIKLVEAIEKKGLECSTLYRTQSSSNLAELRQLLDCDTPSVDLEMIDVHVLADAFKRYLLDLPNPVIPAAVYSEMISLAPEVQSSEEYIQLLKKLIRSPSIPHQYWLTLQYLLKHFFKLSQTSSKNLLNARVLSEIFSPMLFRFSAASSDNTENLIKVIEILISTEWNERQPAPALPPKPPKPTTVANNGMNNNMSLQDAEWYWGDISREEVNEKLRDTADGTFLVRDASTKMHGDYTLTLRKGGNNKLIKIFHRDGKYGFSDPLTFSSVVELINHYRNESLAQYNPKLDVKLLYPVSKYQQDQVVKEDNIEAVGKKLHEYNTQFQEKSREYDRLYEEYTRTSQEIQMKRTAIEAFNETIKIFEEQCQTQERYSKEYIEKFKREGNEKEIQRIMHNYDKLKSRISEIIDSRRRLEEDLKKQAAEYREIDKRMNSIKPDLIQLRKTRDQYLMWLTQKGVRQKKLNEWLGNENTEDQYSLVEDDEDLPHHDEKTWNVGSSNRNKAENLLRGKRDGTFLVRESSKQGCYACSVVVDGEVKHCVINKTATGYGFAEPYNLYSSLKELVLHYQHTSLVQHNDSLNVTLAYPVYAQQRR

Chain of PI3Kγ (p110γ) Recombinant Human Protein (P48736 whole entry): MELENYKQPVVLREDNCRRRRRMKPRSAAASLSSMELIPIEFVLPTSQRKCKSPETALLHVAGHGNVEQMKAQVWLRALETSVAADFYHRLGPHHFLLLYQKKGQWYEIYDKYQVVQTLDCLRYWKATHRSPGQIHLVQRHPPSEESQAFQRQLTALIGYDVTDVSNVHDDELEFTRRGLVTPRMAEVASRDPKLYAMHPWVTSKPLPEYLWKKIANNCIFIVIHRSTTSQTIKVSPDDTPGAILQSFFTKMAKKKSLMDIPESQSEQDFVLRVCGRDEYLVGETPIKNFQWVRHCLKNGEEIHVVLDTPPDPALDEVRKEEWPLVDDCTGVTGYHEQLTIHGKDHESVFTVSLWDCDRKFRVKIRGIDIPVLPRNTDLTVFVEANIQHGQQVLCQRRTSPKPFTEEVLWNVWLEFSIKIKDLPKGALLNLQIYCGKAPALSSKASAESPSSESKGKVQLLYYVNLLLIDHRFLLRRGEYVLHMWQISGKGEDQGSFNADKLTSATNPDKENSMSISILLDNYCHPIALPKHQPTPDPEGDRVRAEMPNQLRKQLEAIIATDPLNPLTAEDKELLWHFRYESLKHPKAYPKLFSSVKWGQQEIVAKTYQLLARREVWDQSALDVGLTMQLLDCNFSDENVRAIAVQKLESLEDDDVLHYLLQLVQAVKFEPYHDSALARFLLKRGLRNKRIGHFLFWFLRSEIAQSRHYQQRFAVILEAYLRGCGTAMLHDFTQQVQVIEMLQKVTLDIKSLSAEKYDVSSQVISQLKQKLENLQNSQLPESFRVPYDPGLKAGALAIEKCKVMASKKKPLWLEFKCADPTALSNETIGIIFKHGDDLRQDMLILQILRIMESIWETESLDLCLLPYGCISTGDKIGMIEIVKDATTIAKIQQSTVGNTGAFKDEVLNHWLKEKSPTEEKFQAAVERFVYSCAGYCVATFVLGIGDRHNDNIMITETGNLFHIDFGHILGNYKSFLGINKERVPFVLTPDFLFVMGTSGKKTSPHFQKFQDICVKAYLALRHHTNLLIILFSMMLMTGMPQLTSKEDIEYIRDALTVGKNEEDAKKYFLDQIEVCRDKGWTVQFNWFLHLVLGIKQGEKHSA

Turning to `Cc1[nH]c(-c2cc(-c3cncc(N4CCOCC4)c3)ccn2)nc1CO` [Example 122, [5-Methyl-2-(5-morpholin-4-yl-3,4′-bipyridin-2′-yl)-1H-imidazol-4-yl]methanol], the IC50 was 1000 to 5000 nM in test [1] (Homo sapiens), not above 500 nM in test [2] and not above 500 nM in test [3].
Take `Cc1n[nH]cc1-c1ccnc(-c2ncc(-c3ccccc3)[nH]2)c1` [Example 9, 4-(3-Methyl-1H-pyrazol-4-yl)-2-(5-phenyl-1H-imidazol-2-yl)pyridine trifluoroacetate salt]: the values for the IC50 in test [1] (Homo sapiens), in test [2] and in test [3] were 1000 to 5000 nM, not above 100 nM and not above 500 nM, respectively.
As to `COc1cncc(-c2ccnc(-c3nc(C)c(-c4ccccc4)[nH]3)c2)c1` [Example 82, 5-Methoxy-2′-(4-methyl-5-phenyl-1H-imidazol-2-yl)-3,4′-bipyridine trifluoroacetate salt], the values for the IC50 in test [1] (Homo sapiens), in test [2] and in test [3] were more than 5000 nM, not above 50 nM and not above 50 nM, respectively.
`Cc1[nH]c(-c2cc(-c3cncc(N4CCOCC4)c3)ccn2)nc1C(=O)NC(C)C` [Example 268, N-Isopropyl-5-methyl-2-(5-morpholin-4-yl-3,4′-bipyridin-2′-yl)-1H-imidazole-4-carboxamide trifluoroacetate salt]: the IC50 in test [1] (Homo sapiens) was 300 to 1000 nM; in test [2] it was not above 50 nM; in test [3], not above 50 nM.
Take `Cc1cnc(-c2cc(-c3cncc(S(=O)(=O)N[C@H]4CC[C@](C)(O)CC4)c3)ccn2)[nH]1` [Example 298, N-((1r,4r)-4-Hydroxy-4-methylcyclohexyl)-2′-(4-methyl-1H-imidazol-2-yl)-[3,4′-bipyridine]-5-sulfonamide Trifluoroacetate Salt]: the IC50 is not above 300 nM in test [1] (Homo sapiens), not above 50 nM in test [2] and not above 50 nM in test [3].
With `CS(=O)(=O)c1cncc(-c2ccnc(-c3ncc(C4CCCC4)[nH]3)c2)c1` [Example 114, 2′-(5-Cyclopentyl-1H-imidazol-2-yl)-5-(methylsulfonyl)-3,4′-bipyridine trifluoroacetate salt], the values for the IC50 in test [1] (Homo sapiens), in test [2] and in test [3] were not above 300 nM, not above 50 nM and not above 50 nM, respectively.
`COC[C@@H](NC(=O)c1nc(-c2cc(-c3cncc(N4CCOCC4)c3)ccn2)[nH]c1C)c1ccccc1` [Example 276, N-[(1S)-2-Methoxy-1-phenylethyl]-5-methyl-2-(5-morpholin-4-yl-3,4′-bipyridin-2′-yl) 1H-imidazole-4-carboxamide trifluoroacetate salt]: the results for the IC50 in test [1], in test [2] and in test [3] were not above 300 nM, not above 100 nM and not above 50 nM, respectively.
In the case of `Cc1nc(-c2cc(-c3cncc(C(=O)N4C5CCC4CC5)c3)ccn2)[nH]c1C` [Example 179, 5-(7-Azabicyclo[2.2.1]hept-7-ylcarbonyl)-2′-(4,5-dimethyl-1H-imidazol-2-yl)-3,4′-bipyridine trifluoroacetate salt], the IC50 is not above 300 nM in test [1] (Homo sapiens), not above 50 nM in test [2] and not above 100 nM in test [3].
The matching figures for `Cc1nc(-c2cc(-c3cncc(C(=O)N4CC(C)(C)C4)c3)ccn2)[nH]c1C` [Example 185, 5-[(3,3-Dimethylazetidin-1-yl)carbonyl]-2′-(4,5-dimethyl-1H-imidazol-2-yl)-3,4′-bipyridine trifluoroacetate salt]: not above 300 nM, not above 50 nM and not above 100 nM.
The matching figures for `COc1cncc(-c2ccnc(-c3cnc(NCC4CCC4)[nH]3)c2)c1` [Example 65, N-(Cyclobutylmethyl)-5-(5-methoxy-3,4′-bipyridin-2′-yl)-1H-imidazol-2-amine trifluoroacetate salt]: more than 5000 nM, not above 500 nM and more than 500 nM.
As for `Cc1[nH]c(-c2cc(-c3cncc(S(C)(=O)=O)c3)ccn2)nc1C(F)F` [Example 121, 2′-[4-(Difluoromethyl)-5-methyl-1H-imidazol-2-yl]-5-(methylsulfonyl)-3,4′-bipyridine Trifluoroacetate Salt], the results for the IC50 in test [1] (Homo sapiens), in test [2] and in test [3] were not above 300 nM, not above 50 nM and not above 50 nM, respectively.
Regarding `Cc1nc(-c2cc(-c3cnn(Cc4ccc(Cl)cc4)c3)ccn2)[nH]c1C` [Example 294, 4-(1-(4-Chlorobenzyl)-1H-pyrazol-4-yl)-2-(4,5-dimethyl-1H-imidazol-2-yl)pyridine Trifluoroacetate Salt], the IC50 in test [1] (Homo sapiens) was more than 5000 nM; in test [2], not above 50 nM; in test [3] it was more than 500 nM.
In the same order, the values of `Cc1[nH]c(-c2cc(-c3cncc(S(C)(=O)=O)c3)ccn2)nc1C(=O)NC(C)C` [Example 253, N-Isopropyl-5-methyl-2-[5-(methylsulfonyl)-3,4′-bipyridin-2′-yl]-1H-imidazole-4-carboxamide trifluoroacetate salt] are not above 300 nM, not above 50 nM and not above 50 nM.
In the same order, the values of `Cc1nc(-c2cc(-c3cncc(C(=O)N4CCC5(CC4)COC5)c3)ccn2)[nH]c1C` [Example 165, (2′-(4,5-Dimethyl-1H-imidazol-2-yl)-3,4′-bipyridin-5-yl)(2-oxa-7-azaspiro[3.5]nonan-7-yl)methanone trifluoroacetate salt] are not above 300 nM, not above 50 nM and not above 100 nM.
The matching figures for `COC1CCN(C(=O)c2cncc(-c3ccnc(-c4nc(C)c(C)[nH]4)c3)c2)C1` (racemic) [Example 174, 2′-(4,5-Dimethyl-1H-imidazol-2-yl)-5-[(3-methoxypyrrolidin-1-yl)carbonyl]-3,4′-bipyridine trifluoroacetate salt]: not above 300 nM, not above 50 nM and not above 50 nM.
For the molecule `Cc1[nH]c(-c2cc(-c3cncc(S(C)(=O)=O)c3)ccn2)nc1C(=O)N1CC(O)C1` [Example 247, l-({5-Methyl-2-[5-(methylsulfonyl)-3,4′-bipyridin-2′-yl]-1H-imidazol-4-yl}carbonyl)azetidin-3-ol], the IC50 is more than 5000 nM in test [1], not above 50 nM in test [2] and not above 50 nM in test [3].
`Cc1nc(-c2cc(-c3cncc(C(=O)N4CCC(F)(F)C4)c3)ccn2)[nH]c1C` [Example 173, 5-[(3,3-Difluoropyrrolidin-1-yl)carbonyl]-2′-(4,5-dimethyl-1H-imidazol-2-yl)-3,4′-bipyridine trifluoroacetate salt]: the values for the IC50 in test [1] (Homo sapiens), in test [2] and in test [3] were not above 300 nM, not above 50 nM and not above 50 nM, respectively.
For the molecule `CS(=O)(=O)c1cncc(-c2ccnc(-c3ncc(C(F)(F)F)[nH]3)c2)c1` [Example 109, 5-(Methylsulfonyl)-2′-(5-(trifluoromethyl)-1H-imidazol-2-yl)-3,4′-bipyridine trifluoroacetate salt], the IC50 is 300 to 1000 nM in test [1] (Homo sapiens), not above 50 nM in test [2] and not above 50 nM in test [3].
As for `O=S(=O)(C1CC1)n1cc(-c2ccnc(-c3ncc(-c4ccccc4)[nH]3)c2)cn1` [Example 46, 4-(1-(Cyclopropylsulfonyl)-1H-pyrazol-4-yl)-2-(5-phenyl-1H-imidazol-2-yl)pyridine trifluoroacetate salt], the IC50 in test [1] (Homo sapiens) is more than 5000 nM; in test [2], not above 100 nM; in test [3] it was not above 500 nM.
On to `CS(=O)(=O)c1cncc(-c2ccnc(-c3ncc(-c4ccccn4)[nH]3)c2)c1` [Example 118, 5-(Methylsulfonyl)-2′-(5-(pyridin-2-yl)-1H-imidazol-2-yl)-3,4′-bipyridine], for which the IC50 in test [1] (Homo sapiens) is 300 to 1000 nM; in test [2] it was not above 50 nM; in test [3] it was not above 50 nM.
As for `COc1cncc(-c2ccnc(-c3cnc(-c4ccccc4)[nH]3)c2)c1` [Example 74, 5-Methoxy-2′-(2-phenyl-1H-imidazol-5-yl)-3,4′-bipyridine], the IC50 in test [1] (Homo sapiens) was more than 5000 nM; in test [2], not above 50 nM; in test [3], not above 50 nM.
As for `CNC(=O)c1nc(-c2cc(-c3cncc(S(C)(=O)=O)c3)ccn2)[nH]c1C` [Example 250, N,5-Dimethyl-2-[5-(methylsulfonyl)-3,4′-bipyridin-2′-yl]-lH-imidazole-4-carboxamide trifluoroacetate salt], the IC50 is 300 to 1000 nM in test [1], not above 50 nM in test [2] and not above 50 nM in test [3].
As to `Cc1nc(-c2cc(-c3cncc(C(=O)N4CCC5(CC5)C4)c3)ccn2)[nH]c1C` [Example 212, 5-(5-Azaspiro[2.4]hept-5-ylcarbonyl)-2′-(4,5-dimethyl-1H-imidazol-2-yl)-3,4′-bipyridine trifluoroacetate salt], the values for the IC50 in test [1] (Homo sapiens), in test [2] and in test [3] were not above 300 nM, not above 50 nM and not above 50 nM, respectively.
Regarding `CC(=O)N1CCN(C(=O)c2cncc(-c3ccnc(-c4nc(C)c(C)[nH]4)c3)c2)CC1` [Example 159, 1-(4-(2′-(4,5-Dimethyl-1H-imidazol-2-yl)-3,4′-bipyridine-5-carbonyl)piperazin-1-yl)ethanone trifluoroacetate salt], the IC50 in test [1] (Homo sapiens) is 1000 to 5000 nM; in test [2], not above 50 nM; in test [3] it was not above 100 nM.

The values above are taken from patent publication US11352340B2, “Pyridine and pyridimine compounds as PI3K-gamma inhibitors” (Incyte Corporation, priority 2016, dated 2022).
